Where a name gives a salt, the structure may show the parent alone. Read-outs that look alike come from different tables or passages of the source.
Tests used:
human forearm skin [1] = conditions: in vivo
Protocol: Patches of the saturated film 2 cm^2 in area were placed by test subjects on their own forearm skin and held in place by clear, nonocclusive adhesive (Tegaderm), allowing constant observation of the skin under the patch. After 17 hours, skin damage was evaluated by visual observation. The damage was ranked using the following scale: 1 (no discoloration, no erythema); 2 (pink coloration, slight erythema); 3 (reddening, moderate erythema, no burning); 4 (reddening and burning, moderate erythema); 5 (erythema and edema, with or without burning); 6 (severe erythema, edema, and burning); and 7 (severe erythema, severe burning, blistering, and edema).
A physiologically active amine in the free base form can be evaluated for skin irritancy by Procedures A, B, or C, set out above. Alternatively, irritation can be determined by other conventional patch test involving maintaining the amine in contact with the skin for 24 hours, and then observing the skin. The results are evaluated using the scales provided for Procedures A, B, or C as defined herein.

human forearm skin [2] = assay: Procedure B primary irritation study in humans (Finn Chambers, 24 hours, 0-4 erythema score)
Excerpt: Procedure B Primary Irritation Study in Human- Alternative Method Finn Chambers (Epitest, Ltd OY, Tuusula, Finland) for epicutaneous testing of irritation on Scanpor adhesive (Norgesplaster A/S, Norway; 10 chambers) were used to test the primary irritancy of the test compound or composition. The formulations were introduced into the Finn Chambers using the following procedures. The adhesive covering was removed and the filter paper dots were placed into the chambers to be used. A disposable pasteur pipette was used to add one drop of formulation onto the filter paper. The pipette was then discarded. This was repeated for each formulation, up to 10 formulations. The subjects' forearm was lowered onto the scanpor adhesive and pressure was applied to insure adhesion. Two strips of 2" paper tape were overlapped over the scanpor adhesive. This remained in place for 24 hours, at which time it was removed and scored immediately using the table below. […]
Procedure B was used to evaluate the irritancy of physiologically active amines with or without complexation or solvation as described in more detail below.

skin [3] = conditions: WO 86/00806; cited from earlier work
skin [4] = conditions: WO 86/00806; cited from earlier work; remark: listed apart in the source
skin [5] = tested on: skin
[6] = Protocol: Given this information and the empirically determined transdermal flux rate of the material, the required patch size in centimeters^2 for effective dosing can be determined. […] The estimated patch size is determined by dividing the calculated therapeutically effective dose rate by the in vitro transdermal flux rate.
The estimated patch size for such a composition can be calculated as described in detail above. […] Since water soluble salt forms of physiologically active amines are not at all soluble in nonpolar, nonvolatile solvents, these solvents cannot be used to increase their transdermal flux rate.
The transdermal patch sizes required to deliver an effective dosage of a selected group of physiologically active amines were evaluated as described above. […] DEET, however, is not an appropriate solvent for extended transdermal drug delivery because it is not a United States Pharmacopeia accepted ingredient.

[7] = cited from earlier work
[8] = Transdermal flux rate through human skin in vitro (flow-through diffusion cell)
Excerpt: A surgically-removed human skin source was used for all in vitro diffusion cell tests. […] Briefly, the full-thickness skin was immersed in distilled water heated to 60±1 degrees C for 45 seconds. The epidermal-stratum corneum layers were then peeled from the dermis. The epidermis-stratum corneum layers were then excised with a cork borer into circular disks 1.4 cm in diameter.
The skin was then mounted onto a Teflon flow-through diffusion cell. […] The skin sample of the donor portion of the diffusion cell was secured in place into the receptor cell. The flow-through cell consisted of a Teflon receptor cell with an exposed skin surface area of 0.32 cm^2 and a receptor cell volume of 0.13 mi. Sink conditions were maintained by pumping phosphate-buffered saline under the skin in the receptor cell at about 3 ml/hr. Thus, the receptor volume was replaced about 23 times per hour. These cells were then mounted on a water-jacketedbracket which maintained the receptor solution in the cells at 33 degrees C. The receptor media which was pumped under the cells was degassed in order to reduce air bubble formation under the skin. […]
Liquid scintillation fluor was added directly to the sample vials so that they could be measured with minimal liquid transfers and handling. The sample vials were then analyzed with appropriate quench correction techniques by liquid scintillation spectroscopy. […]

rabbit back skin = assay: Procedure C primary skin irritation tests in animals; conditions: 24 hour exposure, scored 24 and 72 hours
Protocol: Procedure C Primary Skin Irritation Tests in Animals Tests were performed on young adult albino rabbits (New Zealand White rabbits). Six rabbits were used for each test. The rabbits were prepared for the test by clipping the hair from the backs of the rabbits and any rabbit showing skin damage from the clipping was rejected from the testing. The application sites for the transdermal drug delivery (TDD) patch was intact skin. As an example, a formulation containing the test composition was incorporated into Poroplastic® transdermal patches. One TDD patch containing the test material was applied to one side of the rabbit's back. […] A one (1) inch square gauze patch, two single layers thick, was used to cover the test TDD patch. The animals were immobilized with patches secured in place by adhesive tape. The entire trunk of the animal was then wrapped with an impervious material for the twenty-four (24) hour exposure period. After 24 hours of exposure the patches were removed and the resulting reactions evaluated on the basis of the scoring system indicated below. Observations were again made at the end of a total of 72 hours (48 hours after the first reading). […]
After 24 hours of exposure the patches were removed and the resulting reactions evaluated on the basis of scores as described above.

skin [9] = conditions: oral form; Physician's Desk Reference; cited from earlier work
[10] = Procedure B, human forearm, 24 hours, score 0-4

With `CN(C)CCC(c1ccc(Cl)cc1)c1ccccn1` (stereo not drawn) [Chlorpheniramine Salicylate (1:1 M), Chlorpheniramine Salicylate] the “Irritation Rating (1-7)” value (human forearm skin [1]) was 1.0 and the “Erythema Rating” value (human forearm skin [2]; Procedure B, human forearm, 24 hours, score 0-4, listed as Chlorpheniramine salicylate (1:1 molar ratio)) was 0.0.
For `CCCCC/C=C\C/C=C\CCCCCCCC(=O)O` [Linoleic acid], the “Erythema Rating” value (human forearm skin [2]; [10]) was 0.
For `CCCCCCCC/C=C\CCCCCCCC(=O)O` [Oleic acid], the “Erythema Rating” value (human forearm skin [2]; in vivo) was 0.
In the case of `C=CCCCCCCCCC(=O)O` [Undecylenic acid], the “Erythema Rating” value (human forearm skin [2]; in vivo) is reported as 0.
In the case of `CN1CCC(=C2c3ccccc3CCc3cccnc32)CC1` [azatadine], the “dermal penetration (in words)” value (skin [3]) is given as “good dermal penetration” and the “dermal irritation or sensitization (in words)” value (skin [4]) is given as “no dermal irritation or sensitization”.
With `CN(C)CCC(c1ccc(Br)cc1)c1ccccn1` (stereo not drawn) [brompheniramine maleate] the “skin irritation (in words)” value (skin [5]; in vivo) was “minimally irritating”.
In the case of `CCCCCCCCCCCCCCCCCC(=O)OCCCC` [butyl stearate], the “Erythema Rating” value (human forearm skin [2]; in vivo) is reported as 0.
In the case of `CN(C)CCC(c1ccc(Cl)cc1)c1ccccn1` (stereo not drawn) [chlorpheniramine maleate], the “Irritation Rating (1-7)” value (human forearm skin [1]) is reported as 1.0, the “Erythema Rating” value (human forearm skin [2]; Procedure B, human forearm, 24 hours, score 0-4, listed as Chlorpheniramine maleate (1:1 molar ratio)) is reported as 0.0 and the “skin irritation (in words)” value (skin [5]; procedure not specified) is reported as “minimally irritating”.
In the case of `CN(C)CCC(c1ccc(Cl)cc1)c1ccccn1` (stereo not drawn) [chlorpheniramine], the “Erythema Rating” value (human forearm skin [2]; [10]) is reported as 4.0 and the “estimated flux needed to achieve therapeutic blood levels” value [6] is reported as 90 µg/h.
In the case of `CN(C)CC[C@@H](c1ccc(Br)cc1)c1ccccn1` [dexbrompheniramine], the cal dose rate [6] is listed as 98 µg/h and the effective blood concentration ([7]; in vivo) is listed as 5.3 ng/mL.
In the case of `CN(C)CCOC(c1ccccc1)c1ccccc1` [diphenhydramine hydrochloride], the “transdermal flux / skin penetration (in words)” value ([8]; human skin) is reported as “do not permeate the skin with a therapeutically effective flux rate”.
Work on `CN(C)CCOC(c1ccccc1)c1ccccc1` [diphenhydramine] yielded a Transdermal flux rate ([8]; Table 2, applicant's compositions) of 55.8 μg/cm2/hr.
In the case of `OCCOCCN1CCN(C(c2ccccc2)c2ccc(Cl)cc2)CC1` (stereo not drawn) [hydroxyzine], the irritation rating (human forearm skin [2]; in vivo) is reported as no more than 2.
In the case of `CCCCCCCCCCCCCC(=O)OC(C)C` [isopropyl myristate], the “Erythema Rating” value (human forearm skin [2]; in vivo) is reported as 0.3.
For `CCCCCCCC/C=C\CCCCCCCC(=O)OC(C)C` [isopropyl oleate], the “Erythema Rating” value (human forearm skin [2]; [10]) was 0.
In the case of `CN1CCCC1c1cccnc1` (stereo not drawn) [nicotine], the cal dose rate ([6]; Table 2, clearance times effective blood level) is listed as 936 µg/h, the Clearance ([7]; Table 2) is listed as 1200 mL/min and the effective blood concentration ([7]; Table 2) is listed as 13 ng/mL. The primary irritation score (rabbit back skin) was “less than 2”.
In the case of `COc1ccc(CCN(C)CCCC(C#N)(c2ccc(OC)c(OC)c2)C(C)C)cc1OC` (stereo not drawn) [oral form of Varapamil, Varapamil], the “adverse skin reactions (in words)” value (skin [9]) is listed as “arthralgia and rash, exanthema, hair loss, hyperkeratosis, macules, StevenJohnsons syndrome, and erythema multiforme”.
In the case of `CCCCCCCC/C=C\CCCCCCCC(=O)OCCC` [propyl oleate], the “Erythema Rating” value (human forearm skin [2]; [10]) is reported as 0.
